Experimental data published in patent publication US20210379543A1, “PROCESS FOR PRODUCING A NANO-TAN IIA MICROEMULSION SYSTEM” (Wakamono Corporation, priority 2021, published 2021).

Test: Water solubility / water-dispersability, including FIG. 1 comparison
Format: physicochemical
Settings: dispersed in water, bottle A vs bottle B

Water-dispersability (FIG. 1): insoluble in water
SMILES: Cc1coc2c1C(=O)C(=O)c1c-2ccc2c1CCCC2(C)C [known 90% Tan IIA, Tanshinone IIA]
